One assay addresses T1, bovine GPx1 (Bos taurus, UniProt P00435).
T1 construct: 180 μL of a bovine erythrocyte GPx1 solution (0.125 U/mL); purchased Sigma Aldrich (Taufkirchen, Germany); host or cells: bovine erythrocytes
T1 sequence (P00435 1-205): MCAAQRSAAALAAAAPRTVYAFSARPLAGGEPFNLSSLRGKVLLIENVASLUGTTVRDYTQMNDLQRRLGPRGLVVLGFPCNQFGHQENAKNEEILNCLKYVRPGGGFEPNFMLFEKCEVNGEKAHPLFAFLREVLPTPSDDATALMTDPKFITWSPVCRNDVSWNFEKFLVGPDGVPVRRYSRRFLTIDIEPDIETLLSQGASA
Kind of assay: Jump-dilution experiments for reversibility of GPx1 inhibition. Format: biochemical. Conditions: 30 min pre-incubation at 23 °C, 100-fold jump-dilution. On the procedure: No difference in the inhibitory activity of 4 after jump‐dilution (Figure 4B left, a) was observed compared to expected inhibition at 0.25 μM (Figure 4B left, 0.25 μM), evidence that GPx1 inhibition is reversible. […] This is consistent with findings that MSA can act as an irreversible inhibitor of GPx1.11 In further jump‐dilution experiments, we pre‐incubated both inhibitors with the assay concentrations of either GSH and TBHP (a, d) or GSH only (b, e), with (a–c) and without (d–f) GPx1 for 30 min.
The jump‐dilution experiments were carried out in a 96‐well plates at room temperature. To each well was added 75 μL of a 20 IU mL^−1 GPx stock‐solution followed by the addition of 3 μL of a 2.5 mM solution of 4 in DMF and 30 μL of a 2.5 mM solution of GSH in buffer or 30 μL of a 2.5 mM solution of GSH in buffer and 30 μL of a 5 mM solution of TBHP in water and 300 μL buffer. The plates were shaken for 30 min in the dark, then each well was diluted 100 fold into a second plate prepared for the GPx‐assay. The enzyme activity was immediately measured as described above.

Assay [1] has as its system Gumbus cells. In words: MTT cell viability assay. Format: cell-based, human. Conditions: 48 h. On the procedure: (§1) We determined IC50 values for the viability reduction in a low micro molar range (Figure 6B).
(§2) MTT cell viability assay: For the detection of the inhibition of the viability of cells by the pentathiepins, the MTT‐viability assay was used.37 Briefly, 10 000 and 20 000 cells for the suspension cell lines HL‐60 and Gumbus, respectively, were seeded out in 50 μL medium per well and immediately exposed to the compounds. For the adherent cell lines SISO and HAP‐1, 3000 and 5000 cells, respectively, were seeded out in 96‐well plates and allowed to attach for 24 h. Cells were exposed to nine serial dilutions of compound, added to the medium from 1000‐fold concentrated stock solution in DMF. For the controls, cells were exposed to 0.1 % DMF alone. After 48 h incubation, 20 μL of the MTT stock solution (2.5 mg/mL in PBS) were added to each well to give a final concentration of 1.0 mM. The formazan crystals that formed after 4 h at 37 °C were dissolved by sonification after adding 100 μL of 0.04 M HCl in isopropanol for the suspension cell lines, or with 50 μL DMSO after aspiration of the medium for the adherent cell lines. Optical density was measured with a SpectraMax Plus 383 microtiter plate read at λ=570 nm (Molecular Devices, USA). Data of related absorption to control cells were imported into GraphPad Prism 6.0 software and IC50 values were generated by determining the inflection point of the sigmoidal log concentration‐viability inhibition curves.
(Tetrazolium assays rely on reduction of a dye to a coloured formazan, in cell work by metabolically active cells.)

The next assay concerns HAP-1 cells. In words: MTT cell viability assay. The assay is classed as cell-based, human. On the procedure: as §1, §2
The subject of assay [2] is SISO cells. In words: MTT cell viability assay. The assay is classed as cell-based, human. Conditions: 48 h. On the procedure: as §1, §2
Assay [3] concerns Gumbus cells. Kind of assay: Cell morphology after incubation. The assay is classed as cell-based, human. Conditions: 25 μM, 6 h.
Assay [4] relates to Gumbus cells. Kind of assay: Apoptosis staining with Annexin-V/PI (flow cytometry). The assay is classed as cell-based, human. On the procedure: (§3) To determine whether the loss in viability by 4 is caused by apoptosis, a flow cytometric analysis with Annexin‐V−FITC and PI‐stained cells was used. Early apoptotic cells undergo a translocation of phosphatidyl serine from the inner to the outer cell membrane monitored by Annexin‐V−FITC. Late apoptotic or necrotic cells also show a loss of cell membrane integrity verifiable by PI. Cells were exposed to 4 in multiple concentrations of the viability inhibition IC50 for 6 and 24 h.
(§4) Apoptosis staining with Annexin‐V/PI: For the apoptosis measurement, the translocation of phosphatidyl serine from the inner to the outer membrane by Annexin‐V and PI double staining was used.41 The protocol of the manufacturer (Miltenyi Biotec, Germany) of the “Annexin‐V‐FITC Apoptosis Detection Kit” was followed. In brief, 500,000 cells were seeded into 6‐well plates and exposed to 4 at multiple concentrations of the viability IC50 for 6 and 24 h. Afterwards, the cells were collected in reaction tubes, washed with the binding buffer belonging to the Annexin‐V‐Kit and stained with Annexin‐V‐FITC for 10 min. After repeated washing steps, the PI solution was added to the cells and followed by the flow cytometry investigation analyses at λ ex/em=488/525±50 nm for FITC and λ ex/em=488/655–730 nm for PI with a MACSQuant Analyzer 10 (Miltenyi Biotec).

The next assay has as its system HL-60 cells. The assay is described as above. The assay is classed as cell-based, human. Conditions: multiples of viability IC50, 24 h. On the procedure: as §3, §4
The test system of the next assay is SISO cell line. In words: MTT viability with ferrostatin-1 co-treatment (ferroptosis probe). Format: cell-based, human. Conditions: ferrostatin-1 1.5-6.0 μM, MTT 48 h.
Description: Another form of programmed cell death is ferroptosis, which is iron dependent and activated by lipid peroxidation (LPO) in the cell membrane.14 Unlike apoptosis, PARP cleavage is not observed in this cell death mechanism. GPx4, a membrane bound isoenzyme of GPx1, is believed to be a key protector of cells from ferroptosis by destroying lipid peroxides in the cell membrane.
as §2, with “The formazan crystals that formed after 4 h at 37 °C were dissolved by sonification after adding 100 μL of 0.04 M HCl in isopropanol for the suspension cell lines, or with 50 μL DMSO after aspiration of the medium for the adherent cell lines.” left out, “Data of related absorption to control cells were imported into GraphPad Prism 6.0 software and IC50 values were generated by determining the inflection point of the sigmoidal log concentration‐viability inhibition curves.” left out

Assay [5] concerns SISO cells. In words: Fluorescence microscopy for lipid peroxidation (BODIPY 581/591). The assay is classed as cell-based, human. Conditions: 25 μM, 24 h. On the procedure:
In another set of experiments, LPO was visualized by fluorescence microscopy with a dye for lipid peroxides, BODIPY 581/591. […] Together, our results point to apoptosis and not ferroptosis as the mechanism of cell death induced by 4.
Fluorescence microscopy for the detection of lipid peroxidation: SISO cells (250 000 cells) were seeded out in 6‐well plates with an inserted coverslip. Cells were allow to attach for 24 h and then exposed to 25 μM 4 or 100 μM tert‐butyl‐hydroperoxide as a positive control. After 24 h coverslips were washed with PBS and stained with 1 μM BODIPY 581/591 in culture medium for 30 min. Cells on the coverslips were then mounted and examined with a Leica DMi8 fluorescence microscope at λ ex/em=460–500/512–542 nm for the oxidized BODIPY 581/591 and λ ex/em=540–581/592–668 for the reduced form.

Setting [6] is: Homo sapiens, MTT, read-out: IC50 for viability reduction.

The results in this text go back to publication PMC7496275, “Pentathiepins: A Novel Class of Glutathione Peroxidase 1 Inhibitors that Induce Oxidative Stress, Loss of Mitochondrial Membrane Potential and Apoptosis in Human Cancer Cells” (Chemmedchem, 2020).

Usually pIC50 stands for the negative decadic logarithm of the IC50, by convention in mol/L.

pIC50: −log10 of the molar value.

For `CCOc1c2c(c3cnc4cc(C)c(C)cc4n13)SSSSS2` [Compound 4], the “reversibility of GPx1 inhibition” value at bovine GPx1 is recorded as “reversible”. For the same compound, the “cell viability at highest tested concentration” value in the assay with Gumbus cells [1], in the assay on HAP-1 cells (48 h) and in the assay on SISO cells [2] was “complete loss of cell viability” each time. For the same compound, the pIC50 with Gumbus cells [1] (setting [6]) was 5.51 to 5.66; with HAP-1 cells (Homo sapiens, HAP1, 48 h, MTT, read-out: IC50 for viability reduction), 5.51 to 5.66; in the assay on SISO cells [2] (setting [6]), 5.51 to 5.66. Besides, in the assay with Gumbus cells [3], the change in morphology entry is “membrane blebbing”. Also, the apoptotic population result in the assay with Gumbus cells [4] (fourfold IC50 concentration, 6 h) is on record as “nearly every cell was apoptotic”; in the assay with Gumbus cells [4] (multiples of viability IC50, 6 h), “significant increase of an apoptotic population”; in the assay with HL-60 cells, “significant increase of an apoptotic population”. Also, in the assay with SISO cell line, the “change of IC50 on co-treatment with ferrostatin-1” value is “No significant changes in the IC50 value”. Moreover, in the assay with SISO cells [5], the “lipid peroxidation (LPO)” value is reported as “no indication for LPO”.
